Results taken from PMC6018403 (Frontiers in Pharmacology, 2018).
Like-named read-outs stand apart in the source and are kept apart here.

Assay: Multi-component pharmacokinetic study of GQD, GQD-GC and single herb extracts in rats (plasma, LC/MS/MS)
Type: in vivo, Sprague-Dawley rats
Conditions: for AUC(0-t) / Cmax / half-life / Tmax: male, Sprague-Dawley, rat, plasma; for AUC(0-t): po, read-out: AUClast; for Cmax: read-out: Cmax; for half-life: read-out: T1/2 (converted); for Tmax: read-out: Tmax; for bioavailability in the GQD group compared with the Ge-Gen group: rats, oral
Experimental: Male Sprague-Dawley rats (220–250 g) were used for PK study, and the details were described in Supplemental Data. All procedures were in accordance with the National Institutes of Health Guide for the Care and Use of Laboratory Animals.
For PK study of GQD and its component herbs, rats were randomly divided into six groups (n = 10 for each group) before oral administration.
All blood samples were immediately centrifuged at 6,000 rpm (4°C) for 20 min to obtain plasma. The plasma samples were stored at −80°C.
A Finnigan TSQ Quantum triple quadrupole mass spectrometer was connected to a Surveyor HPLC via ESI interface (ThermoFisher). High purity nitrogen was used as the sheath and auxiliary gas; Ultra-high purity argon was used as the collision gas (1.5 mTorr). Q1 and Q3 quadrupoles were set at unit resolution. […] The column temperature was 40°C. The mobile phase consisted of acetonitrile containing 2% (v/v) methanol (A) and water containing 0.1% (v/v) formic acid (B). […] An aliquot of 5 μL was injected for analysis. UV spectra were obtained by scanning from 200 to 400 nm. The mass spectrometer was operated in the (+)-ESI mode. The optimized parameters were as follows: sheath gas (N2), 50 arb; auxiliary gas (N2), 5 arb; spray voltage, 4.0 kV; capillary temperature, 330°C; collision energy, see Table S1. Analytes were detected in the selected reaction monitoring (SRM) mode. Data were processed by Xcalibur 2.0.7 software (ThermoFisher).
LC/MS/MS calibration and quantitation data were processed with Xcalibur 2.0.7 software (ThermoFisher). The maximal plasma concentrations (Cmax) and their time of occurrence (Tmax) were obtained directly from the measured data. Other pharmacokinetic parameters were calculated by non-compartment or compartment models using WinNonlin® software (v6.1, Pharsight). Unless otherwise stated, results were expressed as the mean ± SD. Statistical significance in differences of the means was determined by Student's t–test, with a significance level of P < 0.05.
Herbal materials and extracts.
The four component herbs, Puerariae Lobatae Radix (Ge-Gen, GG), Scutellariae Radix (Huang-Qin, HQ), Coptidis Rhizoma (Huang-Lian, HL), and Glycyrrhizae Radix et Rhizoma Praeparata cum Melle (Gan-Cao, GC) were purchased from Tianheng Pharmacy. GQD was prepared by decocting the four component herbs […]
pre-extraction of Ge-Gen using 200 mL of water for 0.5 h. The decoctions were combined, filtered, and concentrated in vacuum at 50 °C. GQD-GC was prepared using the same procedure, except that Gan-Cao was removed from the formula. Final concentration of the GQD-GC extract was equivalent to 1.0 g of the crude drugs per mL. For single herb extracts, the herbs were decocted in 8-fold volume of water for […]
Final concentrations of the extracts were 1.0 g/mL for Ge-Gen, and 0.5 g/mL for Huang-Qin, Huang-Lian and […]
For pharmacokinetic study, Male Sprague-Dawley rats (220-250 g) were obtained from the Laboratory Animal Center of Peking University Health Science Center. The […]
The rats had free access to tap water and soy-free custom diet (Ke’ao Xieli Co.). All procedures were in accordance with the National Institutes of Health Guide for the Care and Use of Laboratory Animals […]
Experimental details for the PK study
1. Preparation of internal standard solution, calibration standard solutions, and quality control solutions […]
internal standard solution. Reference standard compounds were dissolved in the internal standard solution to prepare individual stock solutions (1.0 mg/mL). These […]
each compound. The standard solution was then serially diluted to obtain calibration […]
Quality control stock solutions were prepared at three concentration levels as high QC (HQC), middle QC (MQC), and low QC (LQC), based on linear ranges of the analytes.
2.1. Sample preparation for pharmacokinetic study
The calibration standard and quality control solutions for pharmacokinetic study were […]

[1] = 9.45 g/kg, GG (Ge-Gen) group: rats, oral extract 9.45 g/kg
[2] = 16.5 g/kg, GQD-GC group (GQD without Gan-Cao): rats, oral 16.5 g/kg
[3] = 18.9 g/kg, GQD group: rats, oral GQD extract 18.9 g/kg
[4] = GG (Ge-Gen) group: rats, oral extract 9.45 g/kg
[5] = GQD group: rats, oral GQD extract 18.9 g/kg
[6] = GQD-GC group (GQD without Gan-Cao): rats, oral 16.5 g/kg
[7] = in vivo, GG (Ge-Gen) group: rats, oral extract 9.45 g/kg
[8] = in vivo, GQD group: rats, oral GQD extract 18.9 g/kg
[9] = in vivo, GQD-GC group (GQD without Gan-Cao): rats, oral 16.5 g/kg
[10] = HQ (Huang-Qin) group: rats, oral extract 3.54 g/kg

Row | AUC(0-t) [1] | AUC(0-t) [2] | AUC(0-t) [3] | Cmax [4] | half-life [4] | Tmax [4] | Cmax [5] | half-life [5] | Tmax [5] | Cmax [6] | half-life [6] | Tmax [6] | bioavailability in the GQD group compared with the Ge-Gen group | Structure (SMILES) | other results
1 | 51.7 ± 24.2 ng·h/mL | 88.2 ± 24.3 ng·h/mL | 72.6 ± 15.2 ng·h/mL | 3.09 ± 1.99 ng/mL | 6.88 ± 5.23 h | 1 ± 2.31 h | 4.97 ± 1.11 ng/mL | 6.93 ± 0.73 h | 1.04 ± 0.78 h | 8.08 ± 3.19 ng/mL | 8.17 ± 2.43 h | 1.04 ± 0.75 h | higher | O=c1c(-c2ccc(O)cc2)coc2cc(O[C@@H]3O[C@H](CO)[C@@H](O)[C@H](O)[C@H]3O)cc(O)c12 [Compound 4, genistin] | –
2 | – | – | – | – | – | – | – | – | – | – | – | – | – | COc1cc(-c2coc3c(C4OC(COC5OCC(O)(CO)C5O)C(O)C(O)C4O)c(O)ccc3c2=O)ccc1O (stereo not drawn) [Compound 37, 3'-methoxymirificin] | AUC(0-t) (in vivo, 9.45 g/kg, GG (Ge-Gen) group: rats, oral extract 9.45 g/kg): 47.4 ± 28.7 ng·h/mL; AUC(0-t) (in vivo, 16.5 g/kg, GQD-GC group (GQD without Gan-Cao): rats, oral 16.5 g/kg): 42.5 ± 11.3 ng·h/mL; AUC(0-t) (in vivo, 18.9 g/kg, GQD group: rats, oral GQD extract 18.9 g/kg): 86.3 ± 23.9 ng·h/mL; Cmax [7]: 11.6 ± 0.56 ng/mL; half-life [7]: 1.37 ± 0.19 h; Tmax [7]: 0.36 ± 0.74 h; Cmax [8]: 9.94 ± 3.68 ng/mL; half-life [8]: 1.04 ± 0.04 h; Tmax [8]: 0.36 ± 0.03 h; Cmax [9]: 7.22 ± 3.27 ng/mL; half-life [9]: 1.62 ± 0.39 h; Tmax [9]: 0.35 ± 0.42 h
3 | – | 156 ± 73.4 ng·h/mL | 282 ± 11.3 ng·h/mL | – | – | – | 12.9 ± 7.39 ng/mL | 6.63 ± 2.38 h | 7.89 ± 0.99 h | 10.2 ± 6.81 ng/mL | 5.64 ± 1.09 h | 8 ± 2.12 h | – | COc1c(O)cc(O)c2c(=O)cc(-c3ccccc3)oc12 [Compound 8, wogonin] | AUC(0-t) (3.54 g/kg, HQ (Huang-Qin) group: rats, oral extract 3.54 g/kg): 473 ± 34.3 ng·h/mL; Cmax [10]: 38 ± 7.22 ng/mL; half-life [10]: 5.45 ± 1.22 h; Tmax [10]: 8.02 ± 2.48 h
4 | 139 ± 52.4 ng·h/mL | 187 ± 129 ng·h/mL | 500 ± 233 ng·h/mL | 41.2 ± 11.4 ng/mL | 1.21 ± 0.24 h | 1.12 ± 0.29 h | 34.8 ± 34.2 ng/mL | 5.73 ± 2.2 h | 0.86 ± 0.15 h | 24.1 ± 8.38 ng/mL | 2.44 ± 1.45 h | 0.74 ± 0.29 h | higher | COc1ccc(-c2coc3cc(O[C@@H]4O[C@H](CO)[C@@H](O)[C@H](O)[C@H]4O)ccc3c2=O)cc1 [Compound 39, ononin] | AUC(0-t) (18.9 g/kg, GQD group: rats, oral GQD 18.9 g/kg (1.5-fold of clinical dosage)): > 300 ng·h/mL
